Source: patent US11760773B2, “Small molecule drug conjugates of gemcitabine monophosphate” (MaveriX Oncology, Inc., priority 2018, dated 2023)

Legend:
[1] = Comparative dog plasma PK of Int 1-4 versus gemcitabine (study k); format: in vivo; settings: male beagle dog, after iv gemcitabine 5.29 mg/kg
[2] = tested on: UT-SCC-8; assay: Tumor cell proliferation (alamarBlue) cytotoxicity assay, UT-SCC-8; format: cell-based, human; settings: Homo sapiens; UT-SCC-8, 72 hours treatment
Experimental: (§1) A tumor cell proliferation assay was used to determine cytotoxicity IC50 values for the phosphate prodrug Compounds 1-9, the parent non-phosphorylated SMDC parent compounds, and the effector (gemcitabine) across eight primary early-passage human head and neck squamous cell carcinoma cell lines including UT-SCC-5, UT-SCC-8, UT-SCC-9, UT-SCC-10, UT-SCC-14, UT-SCC-16A, UT-SCC-16B, and UT-SCC-24A.
(§2) UTSCC cells were seeded at 4000 cells/100 I/well on 96-well black clear-bottom tissue culture plate. Cells were incubated at 37° C. and 5% CO2 overnight to allow them to recover and re-attach. The next day cells were treated with the test compound (0-100 μM) for 72 hours. After treatment, cell proliferation was measured by Fluorescent quantitation of alamarBlue reagent. The alamarBlue assay incorporates a fluorometric/colorimetric growth indicator based on detection of metabolic activity. Specifically, resazurin, the active ingredient of alamarBlue reagent, is blue in color and virtually non-fluorescent. Upon entering cells, resazurin is reduced to resorufin, a compound that is red in color and highly fluorescent.
(§3) Continued cell growth maintains a reduced environment, therefore increasing the overall fluorescence and color of the media surrounding cells. The fluorescence intensity of alamarBlue reagent was directly proportional to cell number. To perform the alamarBlue assay, 10 I of alamarBlue reagent was added to each well and the plate was incubated at 37° C. for an additional 2 hour. Fluorescence intensity was measured at an excitation of 530 nm and an emission of 590 nm using a BioTek Synergy™ 2 microplate reader.
(§4) Cell proliferation assays in triplicate were performed at each concentration. The fluorescent intensity data were analyzed using the computer software, Graphpad Prism. In the absence of the compound, the fluorescent intensity (Ft) in each data set was defined as 100%. In the absence of cells, the fluorescent intensity (Fb) in each data set was defined as 0%. The percent cell in the presence of each compound was calculated according to the following equation: % cell=(F−Fb)/(Ft−Fb), where F=the fluorescent intensity in the presence of the compound, Fb=the fluorescent intensity in the absence of cells, and Ft=the fluorescent intensity in the absence of the compound. The values of % cell versus a series of compound concentrations were then plotted using non-linear regression analysis of Sigmoidal dose-response curve generated with the equation Y=B+(T−B)/1+10^((Log EC50-X)×Hill Slope) where Y=percent cell, B=minimum percent cell, T=maximum percent cell, X=logarithm of compound and Hill Slope=slope factor or Hill coefficient. The IC50 value was determined by the concentration causing a half-maximal percent activity.

[3] = Metabolic stability in liver hepatocytes, rat; format: in vitro ADME
[4] = Int 1-4 plasma PK in the male cynomolgus monkey (study f); format: in vivo; settings: for MRT inf: read-out: MRT0-inf; for MRT last: read-out: MRT0-last; for Vd: read-out: Vdss
Experimental: Objectives: to compare the plasma pharmacokinetics and stability of Int 1-4 in plasma following single intravenous infusion administration of Int 1-4 at 5 mg/kg and 10 mg/kg in the male cynomolgus monkey
PK measurements: compare PK parameters C0, CL, Vdss, Cmax, tmax, t, AUC(0-t), AUC(0-inf), MRT(0-t), MRT(0-inf) for Int 1-4

[5] = tested on: UT-SCC-9; assay: Tumor cell proliferation (alamarBlue) cytotoxicity assay, UT-SCC-9; format: cell-based, human; settings: Homo sapiens; UT-SCC-9, 72 hours treatment
Experimental: as §1, §2, §3, §4

[6] = Metabolic stability in liver hepatocytes, dog; format: in vitro ADME
[7] = Plasma PK of Int 3-3 in CD-1 mice (study c); format: in vivo; settings: after iv Int 3-3 8.8 mg/kg
Experimental: Objectives: to determine the plasma pharmacokinetics of Int 3-3 following a single intravenous infusion of Int 3-3 at 8.83 mg/kg in CD-1 mice
PK measurements: compare PK parameters C0, CL, Vdss, Cmax, tmax, t1/2, AUC(0-t), AUC(0-inf), MRT(0-t), MRT(0-inf) for Int 3-3.

[8] = Metabolic stability in liver hepatocytes, mouse; format: in vitro ADME; settings: for half-life: read-out: t1/2 mean ± SE
[9] = tested on: UT-SCC-24A; assay: Tumor cell proliferation (alamarBlue) cytotoxicity assay, UT-SCC-24A; format: cell-based, human; settings: Homo sapiens, 72 hours treatment
Experimental: as §1, §2, §3, §4

[10] = Comparative plasma PK of Int 1-4 versus gemcitabine in mouse (study a); format: in vivo; settings: CD-1 mice; for AUC(0-t) / half-life / AUC(0-inf) / Cmax / MRT inf / MRT last / Tmax / C0 / clearance / Vd / AUC0-inf/AUC0-last / AUC0-last / T1/2 / MRT0-inf / MRT0-last: plasma; for MRT inf: read-out: MRT0-inf; for MRT last: read-out: MRT0-last; for Vd: read-out: Vdss
[11] = tested on: UT-SCC-16A; assay: Tumor cell proliferation (alamarBlue) cytotoxicity assay, UT-SCC-16A; format: cell-based, human; settings: Homo sapiens, 72 hours treatment
Experimental: as §1, §2, §3, §4

[12] = tested on: UT-SCC-14; assay: Tumor cell proliferation (alamarBlue) cytotoxicity assay, UT-SCC-14; format: cell-based, human; settings: Homo sapiens; UT-SCC-14, 72 hours treatment
Experimental: as §1, §2, §3, §4

[13] = tested on: UT-SCC-5; assay: Tumor cell proliferation (alamarBlue) cytotoxicity assay, UT-SCC-5; format: cell-based, human; settings: Homo sapiens; UT-SCC-5, 72 hours treatment
Experimental: as §1, §2, §3, §4

[14] = Metabolic stability in liver hepatocytes, human; format: in vitro ADME; settings: for half-life: read-out: t1/2 mean ± SE
[15] = in the clinic; cited from earlier work
[16] = tested on: UT-SCC-16B; assay: Tumor cell proliferation (alamarBlue) cytotoxicity assay, UT-SCC-16B; format: cell-based, human; settings: Homo sapiens, 72 hours treatment
Experimental: as §1, §2, §3, §4

[17] = after iv Int 1-4 5 mg/kg (study f)
[18] = after iv Int 1-4 5 mg/kg (study f), read-out: C0
[19] = after iv Int 1-4 10 mg/kg (study f)
[20] = after iv Int 1-4 10 mg/kg (study f), read-out: C0
[21] = mouse, after iv Int 1-4 9.4 mg/kg
[22] = mouse, after iv Int 1-4 9.4 mg/kg, read-out: AUC0-inf
[23] = mouse, after iv gemcitabine 5.29 mg/kg
[24] = after iv gemcitabine 5.29 mg/kg
[25] = negative value indicates compound is stable, read-out: t1/2 mean ± SE

Nc1ccn([C@@H]2O[C@H](CO)[C@@H](O)C2(F)F)c(=O)n1 [Gemcitabine, gemcitabine]
MRT inf ([1]; read-out: MRT0-inf): 150 min
IC50 [2]: 22 nM
Slope Mean ± SE [3]: 0.00055 ± 0.001504
clearance [4, 17]: 3.71 mL/min/kg
half-life [4, 17]: 2.82 min
C0 [4, 18]: 20.5 ng/mL
MRT inf [4, 17]: 20.5 h
MRT last [4, 17]: 11.4 min
Vd [4, 17]: 0.11 L/kg
clearance [4, 19]: 15.5 mL/min/kg
half-life [4, 19]: 4.8 min
C0 [4, 20]: 53.4 ng/mL
MRT inf [4, 19]: 53.4 h
MRT last [4, 19]: 18 min
Vd [4, 19]: 0.19 L/kg
IC50 [5]: 35 nM
Slope Mean ± SE [6]: 0.000126 ± 0.001156
AUC0-inf/AUC0-last [7]: 113%
AUC(0-t) ([7]; mouse): 63.5 ng·h/mL
half-life ([7]; mouse): 82.8 min
AUC(0-inf) ([7]; mouse, read-out: AUC0-inf): 71.9 ng·h/mL
Cmax ([7]; mouse, read-out: Cmax): 73.4 ng/mL
MRT inf ([7]; mouse, read-out: MRT0-inf): 101 min
MRT last ([7]; mouse, read-out: MRT0-last): 67.8 min
Tmax ([7]; mouse, read-out: Tmax): 3.67 min
Slope Mean ± SE [8]: −0.000512 ± 0.001111
half-life [8]: 1350 ± 2930 min
IC50 [9]: 14 nM
AUC(0-t) [10, 21]: 64.9 ng·h/mL
half-life [10, 21]: 58.1 min
AUC(0-inf) [10, 22]: 74.1 ng·h/mL
Cmax ([10]; mouse, after iv Int 1-4 9.4 mg/kg, read-out: Cmax): 81.9 ng/mL
MRT inf [10, 21]: 76.2 min
MRT last [10, 21]: 52.5 min
Tmax ([10]; mouse, after iv Int 1-4 9.4 mg/kg, read-out: Tmax): 8.34 min
C0 [10, 23]: 6430 ng/mL
clearance [10, 23]: 59 mL/min/kg
half-life [10, 23]: ~54 min
MRT inf [10, 23]: 32.5 min
MRT last [10, 23]: 30.2 min
Vd [10, 23]: 1.84 L/kg
AUC0-inf/AUC0-last ([10]; after iv Int 1-4 9.4 mg/kg): 116%
AUC0-inf/AUC0-last [10, 24]: 101%
AUC0-last [10, 24]: 1383 ng·h/mL
AUC(0-inf) [10, 24]: 1393 ng·h/mL
T1/2 [10, 24]: 52.1 min
IC50 [11]: 61 nM
IC50 [12]: 6 nM
IC50 [13]: 9 nM
Slope Mean ± SE [14]: −0.00684 ± 0.001905
half-life [14]: 101 ± 28.2 min
injected dose recovered in the urine [15]: 90%
share of the dose recovered in urine found as this species [15]: 1%
IC50 [16]: 99 nM

O=c1ccn(C2OC(CO)C(O)C2(F)F)c(=O)[nH]1 (centres unmarked) [dFdU]
t1/2 [1]: 513 min
C0 [4, 17]: 296 ng/mL
MRT0-last [4, 17]: 30.60 h
t1/2 [4, 17]: 40.2 min
C0 [4, 19]: 747 ng/mL
MRT0-last [4, 19]: 63.00 h
t1/2 [4, 19]: 45 min
AUC0-inf/AUC0-last [7]: 146%
AUC0-last [7]: 942 ng·h/mL
AUC(0-inf) [7]: 1403 ng·h/mL
Cmax [7]: 168 ng/mL
MRT0-inf [7]: 449 min
MRT0-last [7]: 220 min
T1/2 [7]: 313 min
Tmax [7]: 240 min
plasma levels of dFdU higher than gemcitabine, based on the ratios of AUC0-last [10, 24]: ~500%
AUC0-inf/AUC0-last ([10]; after iv Int 1-4 9.4 mg/kg): 120%
AUC0-last ([10]; after iv Int 1-4 9.4 mg/kg): 1039 ng·h/mL
AUC(0-inf) ([10]; after iv Int 1-4 9.4 mg/kg): 1440 ng·h/mL
Cmax ([10]; after iv Int 1-4 9.4 mg/kg): 253 ng/mL
MRT0-inf ([10]; after iv Int 1-4 9.4 mg/kg): 279 min
MRT0-last ([10]; after iv Int 1-4 9.4 mg/kg): 164 min
T1/2 ([10]; after iv Int 1-4 9.4 mg/kg): 185 min
Tmax ([10]; after iv Int 1-4 9.4 mg/kg): 60 min
AUC0-inf/AUC0-last [10, 24]: 111%
AUC0-last [10, 24]: 6827 ng·h/mL
AUC(0-inf) [10, 24]: 8187 ng·h/mL
Cmax [10, 24]: 1600 ng/mL
MRT0-inf [10, 24]: 209 min
MRT0-last [10, 24]: 154 min
T1/2 [10, 24]: 134 min
Tmax [10, 24]: 40 min
share of the dose recovered in urine found as this species [15]: 99%

COc1cc(OC)c2oc(COC(=O)Nc3ccn([C@@H]4O[C@H](CO)[C@@H](O)C4(F)F)c(=O)n3)cc2c1 [Int 1-4, (5,7-di(methoxy)benzofuran-2-yl)methyl (1-((2R,4R,5R)-3,3-difluoro-4-hydroxy-5-(hydroxymethyl)tetrahydrofuran-2-yl)-2-oxo-1,2-dihydropyrimidin-4-yl)carbamate]
IC50 [2]: 32 nM
Slope Mean ± SE [3]: −0.007701 ± 0.001794
half-life [3, 25]: 90 ± 21 min
AUC(0-inf) [4, 17]: 5470 ng·h/mL
AUC(0-t) [4, 17]: 5460 ng·h/mL
clearance [4, 17]: 15.4 mL/min/kg
half-life [4, 17]: 43.8 min
C0 [4, 18]: 81000 ng/mL
MRT inf [4, 17]: 0.33 h
MRT last [4, 17]: 18.6 min
Vd [4, 17]: 0.301 L/kg
AUC(0-inf) [4, 19]: 17400 ng·h/mL
AUC(0-t) [4, 19]: 17400 ng·h/mL
clearance [4, 19]: 9.65 mL/min/kg
half-life [4, 19]: 55.8 min
C0 [4, 20]: 166000 ng/mL
MRT inf [4, 19]: 0.44 h
MRT last [4, 19]: 25.8 min
Vd [4, 19]: 0.253 L/kg
IC50 [5]: 39 nM
Slope Mean ± SE [6]: −0.00433 ± 0.001287
half-life [6, 25]: 160 ± 47.6 min
Slope Mean ± SE [8]: −0.006655 ± 0.00081
half-life [8]: 104 ± 12.7 min
IC50 [9]: 20 nM
plasma clearance and tissue uptake ([10]; after iv Int 1-4): quickly clears the plasma
AUC(0-t) [10, 21]: 4980 ng·h/mL
C0 [10, 21]: 78000 ng/mL
clearance [10, 21]: 27.1 mL/min/kg
half-life [10, 21]: 63.6 min
AUC(0-inf) [10, 22]: 5000 ng·h/mL
MRT inf [10, 21]: 20.8 min
MRT last [10, 21]: 19.7 min
Vd [10, 21]: 0.566 L/kg
AUC0-inf/AUC0-last ([10]; after iv Int 1-4 9.4 mg/kg): 100%
IC50 [11]: 138 nM
IC50 [12]: 13 nM
IC50 [13]: 16 nM
Slope Mean ± SE [14]: −0.003031 ± 0.001361
half-life [14]: 229 ± 103 min
IC50 [16]: 162 nM
